These results are taken from ChEMBL document CHEMBL1134958 (Bioorg Med Chem Lett, 2002).

Structures are written as SMILES.

A short description of series [1]: Ratio of inhibitory activities against human tryptase to that of human trypsin.
Series [2] is described as follows: Ratio of inhibitory activities against human tryptase to that of human plasmin.
The nature of series [3]: Aqueous stability was evaluated as half life at 37 degree C at pH 7. The class given is physicochemical. The note with it: aqueous solution.
A short description of series [4]: Ratio of inhibitory activities against human tryptase to that of human urokinase plasminogen activator (microPa).
The nature of series [5]: Ratio of inhibitory activities against human tryptase to that of human tissue plasminogen activator (tissue plasminogen activator).
A further series deals with Tryptase (Homo sapiens, UniProt Q9BZJ3+Q15661+Q9NRR2). The experiment in a line: Inhibitory concentration against human tryptase.
The nature of series [6]: Ratio of inhibitory activities against human tryptase to that of human thrombin.
The nature of series [7]: Aqueous stability was evaluated as half life at 37 degree C at pH 9. The class given is physicochemical. The note with it: aqueous solution.

The half-life is the time in which the quantity being followed falls by half. As a reminder, the IC50 is the midpoint of a concentration-inhibition curve. In the case of `CC(C)C(OC(=O)N1CCN(C(=O)N2C(=O)[C@H](CC3CN(C(=N)N)C3)[C@H]2C(=O)O)CC1)C(C)C`, the Ratio in series [1] was 7; in series [2] it was 394; in series [4], 862; in series [5] it was 2840; in series [6] it was more than 2840. The half-life in series [3] is more than 48 h; in series [7] it was 14.4 h. The compound further had a concentration for half-maximal inhibition (IC50) against Tryptase of 12 nM.
Regarding `CC(C)C(OC(=O)N1CCN(C(=O)N2C(=O)[C@H](CC3CCCN(C(=N)N)C3)[C@H]2C(=O)O)CC1)C(C)C` (single isomer, unassigned) [listing 1 of 2 here], the Ratio in series [1], in series [2], in series [4], in series [5] and in series [6] was more than 162 in each case.
Turning to `CC(C)(C)NC(=O)N1CCN(C(=O)N2C(=O)[C@H](CCCN=C(N)N)[C@H]2C(=O)O)CC1`, the Ratio in series [1] was 18; in series [2] it was 430; in series [4], 135; in series [5], more than 8250; in series [6], 2620. The compound also registered a half-life in series [3] of more than 48 h.
Consider `CC(C)C(OC(=O)N1CCN(C(=O)N2C(=O)[C@H](CC3CCCN(C(=N)N)C3)[C@H]2C(=O)O)CC1)C(C)C` (stereo in doubt; form 1) [listing 1 of 2 here], for which the Ratio is 258 in series [1]; more than 465 in series [2]; more than 465 in series [4]; more than 465 in series [5]; more than 465 in series [6].
Turning to `N=C(N)N1CCCC(C[C@H]2C(=O)N(C(=O)N3CCN(C(=O)OCCCOc4ccccc4)CC3)[C@@H]2C(=O)O)C1` (stereo partly specified), the Ratio in series [1] was more than 1680; in series [2], more than 92500; in series [4], more than 19400; in series [5], more than 19400; in series [6], more than 19400. For the same compound, at Tryptase, the IC50 is less than 1.7 nM.
With `N=C(N)N1CCC[C@H](C[C@H]2C(=O)N(C(=O)N3CCN(C(=O)CCCCCc4ccccc4)CC3)[C@@H]2C(=O)O)C1`, the Ratio in series [1] was more than 3390; in series [2] it was more than 12900; in series [4] it was more than 11800; in series [5], more than 19400; in series [6], more than 19400. The half-life in series [3] is more than 48 h; in series [7] it was more than 17.5 h. The same compound registered an IC50 at Tryptase of less than 1.7 nM.
Take `N=C(N)N1CCCC(C[C@H]2C(=O)N(C(=O)N3CCN(C(=O)NCCCCc4ccccc4)CC3)[C@@H]2C(=O)O)C1` (stereo partly specified): the Ratio in series [1] was more than 1360; in series [2] it was more than 16100; in series [4], more than 8780; in series [5] it was more than 19400; in series [6], more than 19400. For the same compound, the half-life was more than 48 h in series [3] and 12 h in series [7]. Moreover, the IC50 against Tryptase is less than 1.7 nM.
In turn, `CC(C)C(OC(=O)N1CCN(C(=O)N2C(=O)[C@H](CC3CCCN(C(=N)N)C3)[C@H]2C(=O)O)CC1)C(C)C` (single isomer, unassigned) [listing 2 of 2 here] had an IC50 on Tryptase of 204 nM.
In the case of `N=C(N)N1CCCC(C[C@H]2C(=O)N(C(=O)N3CCN(C(=O)CCCCCC4CCCCC4)CC3)[C@@H]2C(=O)O)C1` (stereo partly specified), the Ratio in series [1] is 1680; in series [2] it was 8420; in series [4] it was 12100; in series [5], more than 17400; in series [6] it was more than 17400. Also, at Tryptase, the IC50 is reported as 1.9 nM.
Turning to `CC(C)C(OC(=O)N1CCN(C(=O)N2C(=O)[C@H](CC3CCCN(C(=N)N)C3)[C@H]2C(=O)O)CC1)C(C)C` (stereo in doubt; form 1) [listing 2 of 2 here], the half-life in series [3] and in series [7] was more than 48 h in each case. This compound also displayed an IC50 on Tryptase of 71 nM.
Turning to `CN(CCCCc1ccccc1)C(=O)N1CCN(C(=O)N2C(=O)[C@H](CC3CCCN(C(=N)N)C3)[C@H]2C(=O)O)CC1` (stereo partly specified), the Ratio is 2170 in series [1]; 3620 in series [2]; more than 5500 in series [4]; more than 5500 in series [5]; more than 5500 in series [6]. Also, the half-life in series [3] was more than 48 h; in series [7], 23.9 h. Further, the IC50 against Tryptase came out at 6 nM.
Consider `CC(C)C(OC(=O)N1CCN(C(=O)N2C(=O)[C@H](CC3CCCN(C(=N)N)C3)[C@H]2C(=O)O)CC1)C(C)C` (stereo in doubt; form 2) [listing 1 of 2 here], for which the IC50 on Tryptase amounted to 63 nM. This counts as double-digit nanomolar.
As to `N=C(N)N1CCCC(C[C@H]2C(=O)N(C(=O)N3CCN(C(=O)CCCCCc4ccccc4)CC3)[C@@H]2C(=O)O)C1` (stereo partly specified), the Ratio was more than 1940 in series [1]; more than 16300 in series [2]; more than 17500 in series [4]; more than 19400 in series [5]; more than 19400 in series [6]. Also, the half-life is more than 48 h in series [3] and more than 17.5 h in series [7]. The compound further had a 50% inhibitory concentration (IC50) at Tryptase of less than 1.7 nM.
As for `CC(C)C(OC(=O)N1CCN(C(=O)N2C(=O)[C@H](CC3CCCN(C(=N)N)C3)[C@H]2C(=O)O)CC1)C(C)C` (stereo in doubt; form 2) [listing 2 of 2 here], the Ratio in series [1] is 364; in series [2], more than 465; in series [4] it was more than 465; in series [5], more than 465; in series [6] it was more than 465.
Consider `N=C(N)N1CCCC(C[C@H]2C(=O)N(C(=O)N3CCN(C(=O)CCCCCc4ccccn4)CC3)[C@@H]2C(=O)O)C1` (stereo partly specified), for which the Ratio in series [1] is 739; in series [2], more than 7150; in series [4], 5000; in series [5] it was more than 7150; in series [6], more than 7150. On Tryptase, this compound gave an IC50 of 4.6 nM.
Turning to `CC(C)C(OC(=O)N1CCN(C(=O)N2C(=O)[C@H](CCCN=C(N)N)[C@H]2C(=O)O)CC1)C(C)C`, the Ratio in series [1] was 5; in series [2], 364; in series [4], 843; in series [5], 9170; in series [6], more than 9170. Besides, the half-life in series [3] was more than 48 h; in series [7] it was 7.3 h. The IC50 against Tryptase came to 4 nM.
As for `N=C(N)NCCC[C@H]1C(=O)N(C(=O)N2CCN(C(=O)CCCCCc3ccccc3)CC2)[C@@H]1C(=O)O`, the Ratio in series [1] is more than 8; in series [2] it was more than 26; in series [4], more than 226; in series [5], more than 16500; in series [6] it was more than 16500. On Tryptase, this compound registered an IC50 of less than 1.7 nM.
As for `N=C(N)N1CCC[C@@H](C[C@H]2C(=O)N(C(=O)N3CCN(C(=O)CCCCCc4ccccc4)CC3)[C@@H]2C(=O)O)C1`, the Ratio in series [1] was more than 3280; in series [2], more than 19400; in series [4], more than 19400; in series [5] it was more than 19400; in series [6], more than 19400. Moreover, the half-life in series [3] was more than 48 h; in series [7], more than 17.5 h. This compound also had an IC50 against Tryptase of less than 1.7 nM.
